From patent publication US20250161395A1, “SPINAL CORD REGENERATION THERAPY” (MOLEAC PTE LTD., priority 2022, published 2025)

System: NSC-34 cells
Assay: NSC-34 cell differentiation into mature motor neurons
Format: cell-based

## CC1=C(/C=C/C(C)=C/C=C/C(C)=C/C(=O)O)C(C)(C)CCC1 [RA, retinoic acid]
1 μM RA
  time to NSC-34 cell differentiation: 14 days
10 μM RA
  time to NSC-34 cell differentiation: 7 days
